Assay results taken from patent US10065990B2, “Cyclic peptide compound, and preparation method, pharmaceutical composition and use thereof” (HANGZHOU GUANYU BIO-MEDICAL CO., LTD, priority 2013, dated 2018).
Like-named read-outs stand apart in the source and are kept apart here.

Tests used:
[1] = test system: MCF-7 (human breast cancer cells); test: MTT cancer cell growth inhibition; format: cell-based; conditions: Homo sapiens, MCF7, 72 h, 72 hours incubation, read-out: GI50 MCF
Source text: (§1) MTT assay principle is yellow MTT can penetrate membrane into the cell, succinic dehydrogenase of the mitochondria in living cells can make exogenous MTT reduction of insoluble in water of blue-violet acicular formazan for crystallization and deposition in the cell, crystallization can be dissolved dimethyl sulfoxide (DMSO) solution, detected its absorbance at 490 nm/570 nm wavelength by enzyme-linked immunosorbent assay, which can reflect the number of cells.
(§2) Using DMEM+10% FBS culture medium or using 1640+10% FBS culture, respectively.
(§3) a) Cells were seeded in 96-well plates with the inoculation of 1500/well, 190 μl/hole, 37° C., 5% of CO2 incubator overnight;
(§4) b) The next day each well was added 10 μl of different drugs. The final concentration of drug was 10^−5˜10^−10M, three parallel holes; 37° C., 5% CO2 culture incubator for 72 hours incubation;
(§5) c) Per well was added 20 μl 5 mg/ml of MTT, 37° C., 5% CO2 culture incubator for 4 hours incubation;
(§6) d) The supernatant was discarded. Each well was added 100 μl of DMSO and oscillation;
(§7) e) 570 nm readings. Calculate cell viability. GI50 calculation based on the results.

[2] = test system: MOLT-4 (human acute lymphoblastic leukemia cells); test: MTT cancer cell growth inhibition; format: cell-based; conditions: Homo sapiens, MOLT-4, 72 h, MTT, 72 hours incubation, read-out: GI50 Mol
Source text: as §1, §2, §3, §4, §5, §6, §7

[3] = test system: Huh-7 (human hepatoma cells); test: MTT cancer cell growth inhibition; format: cell-based; conditions: Homo sapiens, Huh-7, 72 h, MTT, 72 hours incubation, Huh-7 cells; read-out: GI50 Huh-7
Source text: as §1, §2, §3, §4, §5, §6, §7

[4] = test system: SGC-7901 (human gastric cancer cells); test: MTT cancer cell growth inhibition; format: cell-based; conditions: Homo sapiens, SGC-7901, 72 h, MTT, 72 hours incubation, SGC-7901 cells; read-out: GI50 SGC-7901
Source text: as §1, §2, §3, §4, §5, §6, §7

[5] = test system: HCC827 (human non-small cell lung cancer cells); test: MTT cancer cell growth inhibition; format: cell-based; conditions: Homo sapiens, HCC827, 72 h, MTT, 72 hours incubation, HCC827 cells; read-out: GI50 HCC827
Source text: as §1, §2, §3, §4, §5, §6, §7

[6] = test system: HT1080 (human fibrosarcoma cells); test: MTT cancer cell growth inhibition; format: cell-based; conditions: Homo sapiens, HT-1080, 72 h, MTT, 72 hours incubation, read-out: GI50 HT1
Source text: as §1, §2, §3, §4, §5, §6, §7

[7] = test system: lncap (prostate cancer cells); test: MTT cancer cell growth inhibition; format: cell-based; conditions: Homo sapiens, LNCaP, 72 h, MTT, 72 hours incubation, read-out: GI50 lnca
Source text: as §1, §2, §3, §4, §5, §6, §7

[8] = test system: PANC-1 (Pac-1, human pancreatic cancer cells); test: MTT cancer cell growth inhibition; format: cell-based; conditions: Homo sapiens, PANC-1, 72 h, MTT, 72 hours incubation, read-out: GI50 PAN
Source text: as §1, §2, §3, §4, §5, §6, §7

[9] = test system: MDA-MB-231 (breast cancer cells); test: MTT cancer cell growth inhibition; format: cell-based; conditions: Homo sapiens, MDA-MB-231, 72 h, read-out: GI50 MDA-MB-231, MTT, 72 hours incubation, MDA-MB-231 cells
Source text: as §1, §2, §3, §4, §5, §6, §7

[10] = test system: K562 (human leukemia cells); test: MTT cancer cell growth inhibition; format: cell-based; conditions: Homo sapiens, K562, 72 h, MTT, 72 hours incubation, K562 cells; read-out: GI50 K562
Source text: as §1, §2, §3, §4, §5, §6, §7

[11] = test system: BGC-823 (human gastric cancer cells); test: MTT cancer cell growth inhibition; format: cell-based; conditions: Homo sapiens, BGC-823, 72 h, MTT, 72 hours incubation, read-out: GI50 BG
Source text: as §1, §2, §3, §4, §5, §6, §7

[12] = test system: KBM5-T315I (human chronic myelogenous leukemia); test: MTT cancer cell growth inhibition; format: cell-based; conditions: Homo sapiens, 72 h, MTT, 72 hours incubation, KBM5-T315I cells; read-out: GI50 KBM5-T315I
Source text: as §1, §2, §3, §4, §5, §6, §7

[13] = test system: Bel-7402 (human hepatoma cells); test: MTT cancer cell growth inhibition; format: cell-based; conditions: Homo sapiens, Bel-7402, 72 h, MTT, 72 hours incubation, Bel-7402 cells; read-out: GI50 Bel-7402
Source text: as §1, §2, §3, §4, §5, §6, §7

[14] = test system: KBM-5 (human chronic myelogenous leukemia); test: MTT cancer cell growth inhibition; format: cell-based; conditions: Homo sapiens, KBM5, 72 h, MTT, 72 hours incubation, KBM-5 cells; read-out: GI50 KBM-5
Source text: as §1, §2, §3, §4, §5, §6, §7

[15] = test system: H1975 (non-small cell lung adenocarcinoma); test: MTT cancer cell growth inhibition; format: cell-based; conditions: Homo sapiens, NCI-H1975, 72 h, MTT, 72 hours incubation, H1975 cells; read-out: GI50 H1975
Source text: as §1, §2, §3, §4, §5, §6, §7

[16] = test system: A549 (human lung cancer cells); test: MTT cancer cell growth inhibition; format: cell-based; conditions: Homo sapiens, A549, 72 h, MTT, 72 hours incubation, read-out: GI50 A54
Source text: as §1, §2, §3, §4, §5, §6, §7

[17] = test system: U937 (human leukemia cells); test: MTT cancer cell growth inhibition; format: cell-based; conditions: Homo sapiens, U-937, 72 h, MTT, 72 hours incubation, read-out: GI50 U93
Source text: as §1, §2, §3, §4, §5, §6, §7

[18] = test system: Hela (human cervical cancer cells); test: MTT cancer cell growth inhibition; format: cell-based; conditions: Homo sapiens, HeLa, 72 h, MTT, 72 hours incubation, read-out: GI50 Hela
Source text: as §1, §2, §3, §4, §5, §6, §7

[19] = test system: DU145 (human prostate cancer cells); test: MTT cancer cell growth inhibition; format: cell-based; conditions: Homo sapiens, DU-145, 72 h, MTT, 72 hours incubation, read-out: GI50 Du1
Source text: as §1, §2, §3, §4, §5, §6, §7

[20] = test system: N-87 (human gastric cancer cells); test: MTT cancer cell growth inhibition; format: cell-based; conditions: Homo sapiens, 72 h, MTT, 72 hours incubation, N-87 cells; read-out: GI50 N-87
Source text: as §1, §2, §3, §4, §5, §6, §7

HDAC7 = target: T1, HDAC7 (Homo sapiens, UniProt Q8WUI4); test: HDAC biochemical activity measurement (fluorescent substrate deacetylation);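 note: fluorogenic deacetylation assay using acetyl-lysine substrate at 20 µM, enzyme and compound incubated 30 min at 37 °C, then developer added, fluorescence read at 360/460 nm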; conditions: HDAC7; 37° C. 30 minutes
T1 sequence (Q8WUI4 1-952): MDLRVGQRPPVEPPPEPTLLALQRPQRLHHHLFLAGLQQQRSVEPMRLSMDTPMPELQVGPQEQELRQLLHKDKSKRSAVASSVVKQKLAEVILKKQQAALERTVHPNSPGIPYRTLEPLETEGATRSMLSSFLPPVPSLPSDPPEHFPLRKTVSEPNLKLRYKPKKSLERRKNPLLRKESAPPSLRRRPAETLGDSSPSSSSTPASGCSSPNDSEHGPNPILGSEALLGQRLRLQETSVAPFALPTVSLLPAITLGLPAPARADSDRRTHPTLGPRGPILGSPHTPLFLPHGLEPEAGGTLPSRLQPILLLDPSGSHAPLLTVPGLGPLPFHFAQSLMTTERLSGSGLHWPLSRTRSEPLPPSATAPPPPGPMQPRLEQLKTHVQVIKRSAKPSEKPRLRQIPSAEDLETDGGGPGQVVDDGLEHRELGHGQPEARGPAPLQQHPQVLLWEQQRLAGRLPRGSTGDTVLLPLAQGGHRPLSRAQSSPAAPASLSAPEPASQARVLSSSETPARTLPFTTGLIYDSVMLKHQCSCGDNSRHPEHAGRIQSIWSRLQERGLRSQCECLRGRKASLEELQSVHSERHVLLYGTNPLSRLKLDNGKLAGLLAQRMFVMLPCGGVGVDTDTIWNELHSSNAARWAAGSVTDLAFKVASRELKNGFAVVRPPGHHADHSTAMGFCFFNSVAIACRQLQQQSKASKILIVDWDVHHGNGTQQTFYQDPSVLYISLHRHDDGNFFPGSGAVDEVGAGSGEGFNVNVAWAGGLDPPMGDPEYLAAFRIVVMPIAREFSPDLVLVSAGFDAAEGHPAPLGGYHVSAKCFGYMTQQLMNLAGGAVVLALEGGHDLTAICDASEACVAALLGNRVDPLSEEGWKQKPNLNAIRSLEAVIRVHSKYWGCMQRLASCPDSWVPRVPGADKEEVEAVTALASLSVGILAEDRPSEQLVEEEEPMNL

Row | GI50 [1] [nM] | GI50 [2] [nM] | GI50 [3] [nM] | GI50 [4] [nM] | GI50 [5] [nM] | GI50 [6] [nM] | GI50 [7] [nM] | GI50 [8] [nM] | GI50 [9] [nM] | GI50 [10] [nM] | GI50 [11] [nM] | GI50 [12] [nM] | GI50 [13] [nM] | GI50 [14] [nM] | GI50 [15] [nM] | GI50 [16] [nM] | GI50 [17] [nM] | GI50 [18] [nM] | GI50 [20] [nM] | IC50 HDAC7 (HDAC7) | Structure (SMILES) | also measured
1 | 50 | 30 | 38 | 45 | 67 | 60 | 30 | 60 | 38 | 34 | 60 | 58 | 67 | 71 | 53 | 40 | 50 | 70 | 69 | no activity | C/C=C1\NC(=O)c2ccc(F)c(n2)CNC(=O)C[C@@H](/C=C/CCSC(=O)CCCCCCC)OC(=O)[C@H](C(C)C)NC1=O [Example 32] | GI50 [19]: 30 nM
2 |  |  | 64 | 51 | 16 |  |  |  | 51 | 62 |  | 53 | 53 | 35 | 39 |  |  |  | 47 | no activity | C/C=C1\NC(=O)c2cc(SC)cc(n2)CNC(=O)C[C@@H](/C=C/CCSC(=O)CCCCCCC)OC(=O)[C@H](C(C)C)NC1=O [Compound 148] | GI50 ([1]; MCF-7 cells): 50 nM; GI50 ([2]; MOLT-4 cells): 80 nM; GI50 ([6]; HT1080 cells): 80 nM; GI50 ([7]; lncap cells): 40 nM; GI50 ([8]; PANC-1 cells): 40 nM; GI50 ([11]; BGC-823 cells): 40 nM; GI50 ([16]; A549 cells): 20 nM; GI50 ([17]; U937 cells): 20 nM; GI50 ([18]; Hela cells): 40 nM; GI50 ([19]; DU145 cells): 50 nM
3 | 100 | 20 | 71 | 84 | 55 | 10 | 30 | 100 | 16 | 23 | 30 | 33 | 66 | 45 | 35 | 50 | 10 | 30 | 53 | no activity | C/C=C1\NC(=O)c2nc(ccc2F)CNC(=O)C[C@@H](/C=C/CCS)OC(=O)[C@H](CCCCNC(=O)OCC2c3ccccc3-c3ccccc32)NC1=O [Compound 120] | GI50 [19]: 50 nM
